Reference: PMC12980303, “Development of a novel risk score reflecting the relative harm potential of synthetic cannabinoids based on prevalence estimates, well‐documented intoxication cases and basic pharmacological data” (Addiction (Abingdon, England), 2025)
Marks after values point to notes of the source that are not given here.

Legend:
[1] = occurrence of SCRAs in intoxication samples of the prospective study; design: species or system human; settings: 2013 to 2021
From the text: For this study, the 10 SCRAs (AB‐[…], ADB‐[…], AB‐FUBINACA, FUB‐AMB, Cumyl‐PEGACLONE, MDMB‐4en‐PINACA, MDMB‐CHMICA, 5F‐MDMB‐PICA, 5F‐ADB and 5F‐PB‐22) which were most frequently detected in intoxications in a prospective observational study during the time period of 2013 to 2021 were selected (see Table 1). Additionally, JWH‐210, a model compound representative of the early SCRAs, along with two substances prevalent in screenings during years 2019/2020 (5F‐Cumyl‐PEGACLONE and 4F‐MDMB‐BICA), were included in this study (see Tables S2–S7). […] JWH‐018 was also included as a reference compound because of its historical use in this capacity. Including both reference compounds facilitates direct comparison with previously published data, thereby enhancing the relevance and interpretability of the results obtained in the present study. Information on the origin of the test and reference compounds and all chemicals used in this study can be found in Table S1.
(§1) The data on intoxication cases used for the development of this risk score were obtained from a prospective study. This study included patients who were treated in an emergency department room following the consumption of an NPS. Clinical symptoms and follow‐up information were documented using a structured questionnaire completed by the attending physicians. The methodology has been previously published. Residual serum (obtained from venous blood) and urine samples, accompanied by the completed questionnaires, were sent to the Poisons Information Center Freiburg for further analysis. The toxicological analyses of serum and urine samples were conducted at the Institute of Forensic Medicine Freiburg. No data was available on previous consumption patterns or potential development of tolerance after continued misuse. The study was conducted in accordance with the Declaration of Helsinki and approved by the regional ethics committee of the University of Freiburg (no. 235/13_130683). The intoxication cases included in this study are those in which SCRA use was confirmed by liquid chromatography tandem mass spectrometry (LC–MS/MS).

[2] = LC–MS/MS analysis of serum and urine samples of intoxication cases; type: in vivo, human; settings: for Concentration in serum: patient serum; for Finding in urine: patient urine
Protocol: as §1
Serum/blood and urine analyses were conducted at the Institute of Forensic Medicine Freiburg using previously published LC–MS/MS methods, that were modified by adding further analytes present in ‘legal‐high’ products (‘herbal blends’, ‘C‐liquids’ or ‘research chemicals’), and covered approximately 100 different SCRAs. Detailed information can be found in the Supporting Information.
Urine samples were analysed according to previously published and validated method by Franz et al.^2. For sample preparation 0.5 mL of phosphate buffer (pH 6) and 30 μL of β-glucuronidase were added to 0.5 mL of urine. Incubation was for 60 min at 45°C. This was followed by protein precipitation using 1.5 mL acetonitrile containing the internal standard (c = 2 ng/mL) and 0.56 mL 10 M ammonium formate solution, followed by shaking and centrifugation. 1 mL of the organic phase was transferred into an autosampler vial and evaporated to dryness under N2. The samples were reconstituted in 200 μL mobile phase.
Urine sample analysis was performed on a Dionex UltiMate® 3000RS UHPLC (Thermo Scientific, Dreieich, Germany) coupled to an API 5000^TM triple quadrupole instrument with a TurboIonSpray® interface (Sciex, Darmstadt, Germany). Separation was performed on a Luna C18 100 Å (150 x 2 mm, 5 μm) column with the mobile phase consisting of 0.2% HCOOH and 2 mmol/L NH^4+HCOO^− in water (A) and acetonitrile (B).

[3] = clinical symptoms, PSS and TSS assessment of individual intoxication cases; type: in vivo, human; design: key to PSS: 0: no; 1: mild; 2: moderate; 3: severe; 4: fatal intoxication
Protocol: Forty‐eight cases were included in the present study.
The PSS was determined based on the described symptoms.
For part G2, the severity of the intoxication caused by the respective SCRA x was assessed on the basis of reported symptoms and follow‐up information using the PSS [20]. The PSS classifies the intoxication severity into five levels: (0) no, (1) mild, (2) moderate, (3) severe, and (4) fatal intoxication. […] For this purpose, the mean value of the PSS of all intoxications with the respective SCRA x was calculated ( G2x) .
For part G3, the involvement of the SCRA in the respective intoxications was assessed. This was evaluated on the basis of the TSS [21]. Elliott et al. developed the TSS to assess and classify the contribution of NPS in fatalities. In the present study, the TSS was determined to weigh the involvement of the investigated SCRA in the intoxication and the contribution of the SCRA to the observed symptoms. To determine the TSS value, factors such as the determined concentration of the SCRA, the presence of other recreational drugs or medicinal drugs, the general health of the patient and the consumption circumstances need to be considered. […] In cases with more than one drug detected, a TSS of 3 was only assigned where other compounds were present at concentrations below the range in which relevant effects are to be expected.

hCB1 receptor [4] = molecular target: T1, hCB1 receptor (Homo sapiens, UniProt P21554); settings: ref Wouters et al. [29], cited from earlier work
T1 sequence (P21554 whole entry): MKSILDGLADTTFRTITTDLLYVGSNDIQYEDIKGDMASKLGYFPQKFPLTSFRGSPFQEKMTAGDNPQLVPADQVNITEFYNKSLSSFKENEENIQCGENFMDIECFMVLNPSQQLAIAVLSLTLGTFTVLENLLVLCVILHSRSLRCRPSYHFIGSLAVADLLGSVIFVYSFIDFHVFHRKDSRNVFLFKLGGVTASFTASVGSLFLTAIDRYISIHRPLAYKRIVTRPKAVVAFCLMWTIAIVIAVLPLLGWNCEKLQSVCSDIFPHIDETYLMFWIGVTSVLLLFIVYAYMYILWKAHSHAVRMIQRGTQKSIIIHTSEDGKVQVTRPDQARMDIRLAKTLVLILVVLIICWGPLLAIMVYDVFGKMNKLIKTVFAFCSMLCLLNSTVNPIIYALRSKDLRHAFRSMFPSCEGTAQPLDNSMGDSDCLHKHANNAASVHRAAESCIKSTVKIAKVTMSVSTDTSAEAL

hCB1 receptor [5] = molecular target: T1, hCB1 receptor; assay: competitive [3H]CP‐55940 radioligand binding assay (hCB1 receptor affinity); settings: Ki [nM] (95% CI), [3H]CP‐55940 competition, hCB1 membrane preparations (HEK293‐EBNA), Cheng–Prusoff; 95% CI in brackets
Protocol: Receptor assays were performed on three different days and each concentration was tested in duplicate.
From the IC50, the respective Ki values were calculated using the Cheng–Prusoff equation [39].

Structure (SMILES): CC(C)C(NC(=O)c1nn(CC2CCCCC2)c2ccccc12)C(N)=O (stereo not drawn)
- No. of intoxications ([1]; 139 intoxication samples of the prospective study): 33
- Percentage in % ([1]; proportion of 139 intoxications in which the substance was detected): 24%
- Concentration in serum ([2]; intoxication case A (AB‐CHMINACA)): 9.5 ng/mL
- Finding in urine ([2]; intoxication case A): positive
- Concentration in serum ([2]; intoxication case B (AB‐CHMINACA)): 27 ng/mL
- Concentration in serum ([2]; intoxication case B (AB‐CHMINACA), listed as AB-CHMINACA): ca. 27 ng/mL
- Finding in urine ([2]; intoxication case B): positive
- PSS ([3]; intoxication case A): 3
- Recorded symptoms ([3]; intoxication case A, 3‐MMC also present): severe bradycardia (35 bpm/minutes)
- Recorded symptoms ([3]; intoxication case A, 3‐MMC also present, listed as AB-CHMINACA): bradycardia (35 bpm/min), seizure, hypokalaemia
- PSS ([3]; intoxication case B): 2
- Recorded symptoms ([3]; intoxication case B, four other SCRAs at very low concentrations): disorientation and miosis
- EC50 (hCB1 receptor [4]; read-out: βarr2 assay EC50 [nM] (95% CI)): 3.45 nM
- βarr2 assay Emax [%] (95% CI) (hCB1 receptor [4]; relative to CP‐55940, originally normalised to JWH‐018, corrected with factor 0.3268): 1195 ^a (1097–1331) %
- Ki (hCB1 receptor [5]): 0.145 nM
